Measurements: US20130096166A1 (Clark Atlanta University, priority 2011, published 2013)

Legend:
[1] = test system: C4-2 cells; test: Detection of reactive oxygen species (H2DCFDA oxidation); type: cell-based, human
Procedure: (§1) Cells were plated at a density of 1×10^4 cells well in 96-well black clear bottom plates and left to attach overnight. Baseline ROS levels were assessed in untreated ARCaP Neo, […], and C4-2 cells. Prior to treatment, […] C4-2 cells were starved in serum-free and phenol red free RPMI. […] Procedures were performed following manufacturer's protocol (Molecular Probes®, Invitrogen) with slight modifications. Briefly, cells were loaded with 10 μM (final working concentration) of H2DCFDA in pre-warmed Hanks Balance Salt solution (HBSS) for 45 minutes. This was replaced with experimental media with various treatments as well as untreated controls, for 3 days. H2DCFDA oxidation was measured on a spectrofluorometer (BIOTek Synergy HT, BIOTeK Instruments Inc., Vt.) with excitation […] and emission 528 nm at desired increments.

[2] = Cell viability assay (CellTiter 96 AQueous One, MTS); type: cell-based, human; conditions: human, ARCaP Neo cells, 3 days, 50 μM H2O2, read-out: decrease in cell viability
Procedure: (§2) PrEC, ARCaP Neo, ARCaP Snail, LNCaP, and C4-2 cells were plated at a density of 2,000 cells per well in 96-well plates and allowed to attach overnight.

[3] = test system: cleaved PARP; test: Western blot analysis of cleaved PARP protein expression; type: cell-based, human; conditions: for effect on camalexin-mediated PARP cleavage: H2O2 with camalexin
[4] = test system: ARCaP Snail cells; test: Detection of reactive oxygen species (H2DCFDA oxidation); type: cell-based, human
Procedure: as §1

[5] = test system: ARCaP Snail cells; test: Cell viability assay (CellTiter 96 AQueous One, MTS); type: cell-based, human
Procedure: as §2

[6] = test system: caspase-3/7 activity in ARCaP Snail cells; test: FACS analysis of caspase-3/7 activity (Dual Sensor Mitocasp assay); type: cell-based, human; conditions: 3 days
Procedure: Caspases are generally accepted as the executioners of apoptosis. […] Stained cells were evaluated in an Accuri® C6 Flow Cytometer (Accuri Cytometers Inc., Ann Arbor, Mich.) and analyzed using FlowJo software.

[7] = test system: ARCaP Neo cells; test: Cell viability assay (CellTiter 96 AQueous One, MTS); type: cell-based, human
Procedure: as §2

[8] = test system: C4-2 cells; test: as above; type: cell-based, human
Procedure: as §2

[9] = test system: LNCaP cells; test: as above; type: cell-based, human
Procedure: as §2

[10] = test system: Snail; test: Western blot analysis of Snail protein expression; type: cell-based, human; conditions: 3 days
[11] = test system: caspase-3; test: Western blot analysis of total caspase-3 protein expression; type: cell-based, human
[12] = test system: Jurkat T-leukemia cells; conditions: by increasing ROS and activation of caspases; cited from earlier work
[13] = test system: Trypanosoma cruzi; conditions: cited from earlier work
[14] = 10 mM NAC added to 25 or 50 μM camalexin
[15] = ARCaP Neo cells, 10, 25 and 50 μM

SMILES: OO [H2O2, Hydrogen peroxide, reference compound]
- ROS in cells ([1]; 100 μM H2O2 positive control): significantly increased ROS
- cytotoxicity at 3 days, 50 μM [2]: ~50%
- effect on camalexin-mediated PARP cleavage ([3]; ARCaP Neo cells): potentiated camalexin-mediated PARP cleavage
- effect on camalexin-mediated PARP cleavage ([3]; LNCaP cells): potentiated camalexin-mediated PARP cleavage

SMILES: CC(=O)N[C@@H](CS)C(=O)O [NAC, N-acetyl cysteine, reference compound]
- effect on camalexin-mediated ROS [4, 14]: abrogated by NAC
- effect on camalexin-mediated ROS [1, 14]: significantly decreased camalexin-mediated ROS
- increased viability vs. 25 μM camalexin-only treatment ([5]; 3 days, 25 μM camalexin with 10 mM NAC, not statistically significant): approximately 15%
- effect on camalexin-induced increase in caspase-3/7 activity ([6]; 25 μM camalexin plus 10 mM NAC): abrogated the percent increase in caspase-3/7 activity
- effect on camalexin-increased cleaved PARP protein expression ([3]; ARCaP Snail cells, co-treatment with NAC): could be inhibited by co-treatment with NAC

SMILES: c1ccc2c(-c3nccs3)c[nH]c2c1 [camalexin, 3-thiazol-2′yl-indole]
- ROS, as compared to untreated controls ([4]; 25 μM camalexin): approximately 210%
- ROS, as compared to untreated controls ([4]; 50 μM camalexin): ~350±25%
- ROS, of untreated controls ([1]; 25 μM camalexin): approximately 130±5%
- ROS, of untreated controls ([1]; 50 μM camalexin): ~150±5%
- cell viability ([7]; day 0): no change in viability
- cell viability ([7]; day 3, 10, 25 and 50 μM): remained unaffected
- cell viability ([5]; day 0): no change in viability
- decrease in cell viability ([5]; day 3, 10 μM): approximately 25%
- decrease in cell viability ([5]; day 3, 25 μM): ~35%
- decrease in cell viability ([5]; day 3, 50 μM): ~35%
- cell viability ([8]; C4-2, day 0): viability was unaffected
- decrease in cell viability ([8]; C4-2, day 3, 10 μM): approximately 40±5%
- decrease in cell viability ([8]; C4-2, day 3, 25 μM): approximately 40±5%
- decrease in cell viability ([8]; C4-2, day 3, 50 μM): approximately 40±5%
- cell viability ([9]; day 0): viability was unaffected
- decrease in cell viability ([9]; day 3, 50 μM): approximately 40±2%
- fraction of cells with increased caspase-3/7 activity ([6]; 25 μM camalexin, untreated control 21.7%): 34.2%
- Snail protein expression [10, 15]: no detectable levels of Snail protein expression
- Snail protein expression ([10]; ARCaP Snail cells, 10, 25 and 50 μM): not affected by camalexin treatments
- Snail protein expression ([10]; C4-2 cells, 10, 25 and 50 μM): did not affect Snail expression
- Snail protein expression ([10]; LNCaP cells, 10 μM): moderate expressing band for Snail protein
- total caspase-3 protein levels ([11]; ARCaP Neo cells, 3 days): not in the less aggressive ARCaP Neo or LNCaP cells
- total caspase-3 protein levels ([11]; ARCaP Snail cells, 3 days (p<0.01 at 50 μM)): induced an increase in total caspase-3 protein levels
- total caspase-3 protein levels ([11]; C4-2 cells, 3 days): induced an increase in total caspase-3 protein levels
- total caspase-3 protein levels ([11]; LNCaP cells, 10 μM, 3 days): significant decrease in protein expression
- total caspase-3 protein levels ([11]; LNCaP cells, 3 days): not in the less aggressive ARCaP Neo or LNCaP cells
- cleaved PARP protein expression [3, 15]: very low levels of cleaved PARP protein expression
- cleaved PARP protein expression ([3]; ARCaP Snail cells, 10, 25 and 50 μM vs untreated control): marked increase in levels of cleaved PARP protein expression
- PARP protein cleavage ([3]; C4-2 cells, all 3 camalexin treatments, vs LNCaP cells): marked increase in PARP protein cleavage
- apoptosis [12]: induced apoptosis
- cytostatic/cytotoxic effects [13]: cytostatic/cytotoxic effects
